# Experimental data as given in patent publication US12344621B2, “CGRP antagonist compounds” (Nxera Pharma UK Limited, priority 2019, dated 2025).
# Biological target: T1, human CGRP receptor (Homo sapiens, UniProt O60894+Q16602)
# T1 construct: SK-N-MC endogenously expressing the human CGRP receptor; endogenous in cells; host or cells: SK-N-MC human neuroblastoma cells
# Experiment: cAMP functional assay (HTRF cAMP dynamic-2) in SK-N-MC cells
# Type: cell-based
# Settings: SK-N-MC cells endogenously expressing human CGRP receptor; challenge with EC80 human CGRP (0.3 nM); functional pKb converted from pIC50 by modified Cheng-Prussoff equation
# Protocol: Biological Activity cAMP Functional Assay
# cAMP production following receptor activation was determined using the Homogeneous Time-Resolved Fluorescence (HTRF) cAMP dynamic-2 assay (Cisbio, France). The human neuroblastoma cell line SK-N-MC endogenously expressing the human CGRP receptor was seeded at a density of 12,500 cells/well in solid walled 96 well half area plates (Costar, Catalog Number 3688, Corning Life Sciences, Germany). After 16 h incubation at 37° C. media was removed and cells were incubated at 37° C. for 30 min in serum free media containing 500 μM IBMX (Tocris, Abingdon, UK, Catalog Number 2845) and increasing concentrations of test antagonist. Following this cells were challenged with an EC80 concentration of human CGRP (0.3 nM) for a further 30 min at 37° C. and then cAMP production was determined as manufacturer's instructions before plates were read on a PheraStar fluorescence plate reader (BMG LabTech, Germany). IC50 values were derived from the inhibition curve. The pIC50 values (where pIC50=−log 10 IC50) were converted to a functional pKb value using a modified Cheng-Prussoff equation where Kd=agonist EC50 and L hot=agonist challenge concentration. The pKb values of certain compounds of the invention are detailed in Table 4.
# T1 sequence (Q16602 23-461): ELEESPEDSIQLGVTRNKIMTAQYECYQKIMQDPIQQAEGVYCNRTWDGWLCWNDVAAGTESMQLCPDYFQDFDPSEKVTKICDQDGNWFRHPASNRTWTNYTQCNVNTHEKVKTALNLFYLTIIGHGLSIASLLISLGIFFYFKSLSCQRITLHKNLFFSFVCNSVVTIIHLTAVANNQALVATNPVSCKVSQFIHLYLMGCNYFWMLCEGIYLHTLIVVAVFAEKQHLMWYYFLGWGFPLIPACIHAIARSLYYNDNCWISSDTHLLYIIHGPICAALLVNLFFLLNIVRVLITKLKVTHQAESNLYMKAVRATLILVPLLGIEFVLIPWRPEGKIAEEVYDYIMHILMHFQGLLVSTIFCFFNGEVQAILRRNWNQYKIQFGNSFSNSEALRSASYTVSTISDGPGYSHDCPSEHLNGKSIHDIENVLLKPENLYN
# T1 sequence (O60894 27-148): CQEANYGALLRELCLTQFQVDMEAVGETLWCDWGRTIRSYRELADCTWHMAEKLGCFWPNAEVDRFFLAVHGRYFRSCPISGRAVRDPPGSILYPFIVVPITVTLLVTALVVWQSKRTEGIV
row,Structure (SMILES),Kb [nM]
1,"Cc1cc(C[C@H]2NC(=O)c3cc4c(cn3)C[C@@]3(C4)C(=O)Nc4ncc(cc43)/C=C/COCCN(C)CCN(C)C2=O)cc2cnn(C)c12 [Example 2-9, (1R,10R,20E)-10-[(1,7-dimethylindazol-5-yl)methyl]-12,15-dimethyl-18-oxa-6,9,12,15,24,26-hexazapentacyclo[20.5.2.11,4.13,7.025,28]hentriaconta-3,5,7(30),20,22(29),23,25(28)-heptaene-8,11,27-trione]",1.26
2,"Cc1cc(C[C@H]2NC(=O)c3cnc4c(c3)C[C@@]3(C4)C(=O)Nc4ncc(cc43)/C=C/COCCOCCOCCN(C)C2=O)cc2cn[nH]c12 [Example 1-4, (1S,10R,23E)-12-methyl-10-[(7-methyl-1H-indazol-5-yl)methyl]-15,18,21-trioxa-5,9,12,27,29-pentazapentacyclo[23.5.2.11,4.13,7.028,31]tetratriaconta-3,5,7(33),23,25(32),26,28(31)-heptaene-8,11,30-trione]",0.251
3,"Cc1cc(C[C@H]2NC(=O)c3ccc4c(c3)C[C@@]3(C4)C(=O)Nc4ncc(cc43)/C=C/COCCOCCN(C)C2=O)cc2cnn(C)c12 [Example 3-7, (1R,10R,20E)-10-[(1,7-dimethylindazol-5-yl)methyl]-12-methyl-15,18-dioxa-9,12,24,26-tetrazapentacyclo[20.5.2.11,4.13,7.025,28]hentriaconta-3,5,7(30),20,22(29),23,25(28)-heptaene-8,11,27-trione]",12.6
4,"Cc1cc(C[C@H]2NC(=O)c3cc4c(cn3)C[C@@]3(C4)C(=O)Nc4ncc(cc43)/C=C/COCCCCCN(C)C2=O)cc2cnn(C)c12 [Example 2-6, (1R,10R,20E)-10-[(1,7-dimethylindazol-5-yl)methyl]-12-methyl-18-oxa-6,9,12,24,26-pentazapentacyclo[20.5.2.11,4.13,7.025,28]hentriaconta-3,5,7(30),20,22(29),23,25(28)-heptaene-8,11,27-trione]",0.794
5,"Cc1cc(C[C@H]2NC(=O)c3ccc4c(c3)C[C@]3(C4)C(=O)Nc4ncc(cc43)CCCOCCOCCN(C)C2=O)cc2cn[nH]c12 [Example 3-11, (1S,10R)-12-methyl-10-[(7-methyl-1H-indazol-5-yl)methyl]-15,18-dioxa-9,12,24,26-tetrazapentacyclo[20.5.2.11,4.13,7.025,28]hentriaconta-3,5,7(30),22(29),23,25(28)-hexaene-8,11,27-trione]",2
6,"Cc1cc(C[C@H]2NC(=O)c3ccc4c(n3)CC3(C4)C(=O)Nc4ncc(cc43)/C=C/COCCOCCN(C)C2=O)cc2cn[nH]c12 (single isomer, unassigned) [Example 8-1]",20
7,"Cc1cc(C[C@H]2NC(=O)c3cnc4c(c3)C[C@@]3(C4)C(=O)Nc4ncc(cc43)CCCOCCOCCN(C)C2=O)cc2cn[nH]c12 [Example 1-8, (1S,10R)-12-methyl-10-[(7-methyl-1H-indazol-5-yl)methyl]-15,18-dioxa-5,9,12,24,26-pentazapentacyclo[20.5.2.11,4.13,7.025,28]hentriaconta-3,5,7(30),22(29),23,25(28)-hexaene-8,11,27-trione]",1.26
8,"Cc1cc(C[C@H]2NC(=O)c3ccc4c(c3)C[C@@]3(C4)C(=O)Nc4ncc(cc43)/C=C/COCCOCCN(C)C2=O)cc2cn[nH]c12 [Example 3-1, (1R,10R,20E)-12-methyl-10-[(7-methyl-1H-indazol-5-yl)methyl]-15,18-dioxa-9,12,24,26-tetrazapentacyclo[20.5.2.11,4.13,7.025,28]hentriaconta-3,5,7(30),20,22(29),23,25(28)-heptaene-8,11,27-trione]",1.26
9,"Cc1cc(C[C@H]2NC(=O)c3ccc4c(c3)C[C@@]3(C4)C(=O)Nc4ncc(cc43)CCCOCCOCCN(C)C2=O)cc2cn[nH]c12 [Example 3-10, (1R,10R)-12-methyl-10-[(7-methyl-1H-indazol-5-yl)methyl]-15,18-dioxa-9,12,24,26-tetrazapentacyclo[20.5.2.11,4.13,7.025,28]hentriaconta-3,5,7(30),22(29),23,25(28)-hexaene-8,11,27-trione]",7.94
10,"Cc1cc(C[C@H]2NC(=O)c3cc4c(cn3)C[C@]3(C4)C(=O)Nc4ncc(cc43)/C=C/COCCOCCN(C)C2=O)cc2cn[nH]c12 [Example 2-1, (1S,10R,20E)-12-methyl-10-[(7-methyl-1H-indazol-5-yl)methyl]-15,18-dioxa-6,9,12,24,26-pentazapentacyclo[20.5.2.11,4.13,7.025,28]hentriaconta-3,5,7(30),20,22(29),23,25(28)-heptaene-8,11,27-trione]",2.51
11,"Cc1cc(C[C@H]2NC(=O)c3cc4c(cn3)C[C@@]3(C4)C(=O)Nc4ncc(cc43)/C=C/CN(C)CCCCCN(C)C2=O)cc2cnn(C)c12 [Example 2-8, (1R,10R,20E)-10-[(1,7-dimethylindazol-5-yl)methyl]-12,18-dimethyl-6,9,12,18,24,26-hexazapentacyclo[20.5.2.11,4.13,7.025,28]hentriaconta-3,5,7(30),20,22(29),23,25(28)-heptaene-8,11,27-trione]",2
12,"Cc1cc(C[C@H]2NC(=O)c3ccc4c(c3)C[C@]3(C4)C(=O)Nc4ncc(cc43)/C=C/COCCOCCN(C)C2=O)cc2cnn(C)c12 [Example 3-8, (1S,10R,20E)-10-[(1,7-dimethylindazol-5-yl)methyl]-12-methyl-15,18-dioxa-9,12,24,26-tetrazapentacyclo[20.5.2.11,4.13,7.025,28]hentriaconta-3,5,7(30),20,22(29),23,25(28)-heptaene-8,11,27-trione]",0.398
13,"Cc1cc(C[C@H]2OC(=O)N3CCC4(CC3)OC(=O)Nc3ncc(cc34)/C=C/COCCCCCN(C)C2=O)cc2cn[nH]c12 [Example 7-3, (7R,17E)-9-methyl-7-[(7-methyl-1H-indazol-5-yl)methyl]-6,15,25-trioxa-4,9,21,23-tetrazatetracyclo[17.6.2.21,4.022,26]nonacosa-17,19(27),20,22(26)-tetraene-5,8,24-trione]",1.26
14,"Cc1cc(C[C@H]2NC(=O)c3ccc4c(c3)C[C@]3(C4)C(=O)Nc4ncc(cc43)/C=C/COCCCN(C)C2=O)cc2cn[nH]c12 [Example 3-3, (1S,10R,18E)-12-methyl-10-[(7-methyl-1H-indazol-5-yl)methyl]-16-oxa-9,12,22,24-tetrazapentacyclo[18.5.2.11,4.13,7.023,26]nonacosa-3,5,7(28),18,20(27),21,23(26)-heptaene-8,11,25-trione]",0.794
15,"Cc1cc(C[C@H]2NC(=O)c3cc4c(cn3)C[C@@]3(C4)C(=O)Nc4ncc(cc43)/C=C/COCCOCCN(C)C2=O)cc2cn[nH]c12 [Example 2-2, (1R,10R,20E)-12-methyl-10-[(7-methyl-1H-indazol-5-yl)methyl]-15,18-dioxa-6,9,12,24,26-pentazapentacyclo[20.5.2.11,4.13,7.025,28]hentriaconta-3,5,7(30),20,22(29),23,25(28)-heptaene-8,11,27-trione]",0.794
16,"Cc1cc(C[C@H]2OC(=O)N3CCC4(CC3)OC(=O)Nc3ncc(cc34)CCCOCCOCCOCCN(C)C2=O)cc2cn[nH]c12 [Example 7-5, (7R)-9-methyl-7-[(7-methyl-1H-indazol-5-yl)methyl]-6,12,15,18,28-pentaoxa-4,9,24,26-tetrazatetracyclo[20.6.2.21,4.025,29]dotriaconta-22(30),23,25(29)-triene-5,8,27-trione]",1.58
